Test results: patent EP4692091A1, “CA[…], AND PHARMACEUTICAL COMPOSITION, PREPARATION METHOD THEREFOR AND USE THEREOF” (Changchun Genescience Pharmaceutical Co., Ltd., priority 2023, dated 2024)
pIC50: −log10 of the molar value. Read-outs that look alike come from different tables or passages of the source.

What was measured:
[1] = system: SK-BR-3; experiment: Inhibition of proliferation of SK-BR-3 cells by compounds (CellTiter-Glo, 72 h); format: cell-based; settings: Homo sapiens, SK-BR-3, 72 h, SK-BR-3, 72 h incubation
In short: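 SK-BR-3 cells plated in 384-well format, allowed to adhere, then exposed to compound (0.33% DMSO final) for 72 h at 37 °C, 5% CO2. Viability read by CellTiter-Glo luminescence; IC50 from four-parameter nonlinear fit.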

[2] = Stability of compounds in human plasma; format: in vitro ADME; settings: 37°C, 5 µmol/L
Method: • (1) 199 µL of human plasma was added to the culture plate of each cell. The culture plate was preheated to 37°C, and kept at this temperature for 15 min. • (2) After preincubation, 1 µL of 1 mmol/L each test compound and 1 µL of 1 mmol/L control compound were added to 199 µL of plasma, so that a final concentration of each test compound was 5 µmol/L and that of the control compound was 5 µmol/L. The final concentration of the organic solvent was 0.5%. The experiment would be duplicated twice. • (3) Reaction samples were incubated at 37°C. • (4) The reaction was stopped by adding 600 µL of cold methanol containing the internal standard at 0, 1, 2, 6, and 24 h. Each sample was vortex mixed for 10 min, and then centrifuged at 3,220 g for 30 min to precipitate the protein. […] Based on the signal response and peak shapes of liquid chromatography-mass spectrometry (LC-MS), the supernatant would be diluted with ultrapure water.
All calculations were performed using Microsoft Excel. The peak area ratio was determined from the chromatogram of extracted ions. The percentage of compounds remaining at each time point was calculated as per the following formula: Residual percentagetmin (%) = peak area ratiotmin /peak areat0 × 100 [formula]

[3] = Stability of compounds in human plasma; format: in vitro ADME; settings: 37°C, 5 µmol/L, read-out: Residual percentage (%)
[4] = target: CYP3A4 (Homo sapiens, UniProt P08684); experiment: CYP inhibition in human hepatomicrosomes, CYP3A4
Sequence of CYP3A4 (P08684 whole entry): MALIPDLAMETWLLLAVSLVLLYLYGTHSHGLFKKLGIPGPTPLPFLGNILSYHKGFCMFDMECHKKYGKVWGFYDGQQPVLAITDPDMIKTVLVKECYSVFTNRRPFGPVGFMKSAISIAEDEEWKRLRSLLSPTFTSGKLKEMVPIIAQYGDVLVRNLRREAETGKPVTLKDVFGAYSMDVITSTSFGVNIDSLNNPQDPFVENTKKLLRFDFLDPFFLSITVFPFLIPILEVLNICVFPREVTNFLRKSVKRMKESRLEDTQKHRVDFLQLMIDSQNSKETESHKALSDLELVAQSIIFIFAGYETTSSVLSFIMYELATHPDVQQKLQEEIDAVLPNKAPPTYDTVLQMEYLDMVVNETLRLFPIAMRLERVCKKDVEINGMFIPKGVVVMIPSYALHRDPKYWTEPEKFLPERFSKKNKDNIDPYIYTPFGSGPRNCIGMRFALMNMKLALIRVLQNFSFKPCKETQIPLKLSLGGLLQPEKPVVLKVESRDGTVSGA

SMILES: CC[C@@]1(O)C(=O)OCc2c1cc1n(c2=O)Cc2c-1nc1cc(F)c(C)c3c1c2[C@@H](NC(=O)CO)CC3 [Dxd]
- pIC50 [1]: 7.96
- Residual percentage (%) ([2]; 0 h): 100.00%
- remaining at 1 h, 5 µM ([2]; 1 h, read-out: Residual percentage (%)): 89.4%
- remaining at 2 h, 5 µM ([2]; 2 h, read-out: Residual percentage (%)): 86.8%
- remaining at 6 h, 5 µM ([2]; 6 h, read-out: Residual percentage (%)): 86.4%
- remaining at 24 h, 5 µM ([2]; 24 h, read-out: Residual percentage (%)): 82.3%
- remaining at 4 h, 5 µM [3]: 83.6%
- pIC50 [4]: < 4.52
- IC50 ([4]; read-out: 3A4M (IC50 µM), human hepatomicrosomes, substrate Midazolam): > 30 µM
